Experimental findings from PubChem BioAssay (NCI) are described below.

What all share (assay): DTP human tumour cell line panel, 48 h
Assay [1] concerns COLO 205 colon.
Assay [2] has as its system HOP-62 NSCLC.
Assay [3] relates to KM12 colon.
Assay [4] relates to NCI-H460 lung.
Assay [5] deals with RPMI-8226 leukemia.
The subject of assay [6] is SF-295 CNS.
Assay [7] deals with SF-539 CNS.
For assay [8], the system named is SR leukemia.
Assay [9] concerns SW-620 colon.
Assay [10] has as its system UACC-257 melanoma.
Assay [11] concerns RXF 393 renal.

The TGI is the concentration at which net growth stops. A high value points to less potent growth arrest. In general, GI50 refers to the concentration at which growth is held to half of that of the control.

SMILES strings stand for the structures.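 All cell lines were grown in 96-well plates and treated with compound for 48 hours. The concentration for 50% growth inhibition is given as GI50. TGI: concentration producing complete growth inhibition.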 Where only a bound is given, the exact number is not on record here.

Regarding `COc1ccc2nc3c([N+](=O)[O-])ccc4c3c(c2c1)N=CN4CCN(C)C`, the total growth inhibition concentration (TGI) in assay [1] was 10.1 µM; in assay [2], 15.3 µM; in assay [3], 15.6 µM; in [4], greater than 34.1 µM; in assay [5] it was 8.27 µM; in assay [6], 21.7 µM. In addition, the concentration for total growth inhibition (TGI) is 15.8 µM in assay [7], 0.855 µM in assay [8], greater than 42.6 µM in assay [9] and 16.1 µM in assay [10].
Take `COc1cc(Cn2c3ccccc3c3cc(C)cc(OC)c32)cc2c1[nH]c1ccccc12`: the TGI is greater than 25 µM in assay [1]; 17.4 µM in assay [2]; greater than 25 µM in assay [3]; greater than 25 µM in assay [4]; greater than 25 µM in [5]; greater than 25 µM in [7]. The concentration for total growth inhibition (TGI) in [8] and in [9] was greater than 25 µM each time. Moreover, the GI50 in assay [2] is 6.63 µM; in [3] it was 10.2 µM; in assay [4], 10.8 µM; in assay [7], 9.83 µM; in assay [8], 16.6 µM; in [9], 13.4 µM.
In the case of `COC(=O)CCc1cc(OC)c2oc(-c3ccc(OC)c(OC)c3)c(CO)c2c1`, the concentration for total growth inhibition (TGI) in assay [1], in assay [2], in assay [3], in assay [4], in assay [5] and in [6] was greater than 100 µM in each case. For the same molecule, the TGI in [7], in [8], in [9] and in assay [10] was greater than 100 µM throughout.
Turning to `CCN(CC)CCC(=O)Nc1ccc2sc3ccccc3c(=O)c2n1`, the TGI in [1] was found to be 29.1 µM; in assay [2], 37.8 µM; in [3] it was 32.1 µM; in assay [4] it was 61.6 µM; in assay [5], 43.5 µM; in assay [6] it was 48.9 µM. In addition, the TGI in assay [7] was 33.4 µM; in [8], greater than 100 µM; in assay [9], 33.9 µM; in assay [10] it was 37.5 µM.
For the molecule `O=C(O)CCC1(CCC(=O)O)CCCCCCCCC(CCC(=O)O)(CCC(=O)O)C(=O)C1=O`, the TGI in assay [1], in assay [2], in assay [3], in assay [4], in assay [5] and in assay [6] was greater than 100 µM throughout. For the same molecule, the TGI in assay [7], in [8], in assay [9] and in [10] was greater than 100 µM each time.
On to `O=S1(=O)OCCOS(=O)(=O)C1(Br)Br`, for which the concentration for total growth inhibition (TGI) in assay [1], in assay [2], in [3], in assay [5], in assay [6] and in [7] was greater than 100 µM in each case. Further, the TGI in [8], in assay [9] and in assay [10] was greater than 100 µM throughout.
For `CCOC(=O)c1c(Br)c(-c2ccc([N+](=O)[O-])cc2)c(Br)n1C`, the total growth inhibition concentration (TGI) in [1], in assay [2], in assay [3], in assay [4], in assay [5] and in assay [6] was greater than 10 µM in each case. The TGI in assay [7], in assay [8] and in [10] was greater than 10 µM in each case.
Regarding `N#C/C(=C\c1ccccc1F)C(=O)c1ccccc1`, the TGI in [1], in [2], in [3], in [5], in assay [6] and in [7] was greater than 100 µM each time. Moreover, the TGI in assay [8], in [9] and in assay [10] was greater than 100 µM throughout.
With `Cc1nc2c(n1Cc1ccc(F)cc1)C(=O)c1ccccc1C2=O`, the TGI in assay [1] is greater than 100 µM; in assay [2], greater than 100 µM; in [3] it was greater than 100 µM; in [4], greater than 100 µM; in [11], 87.3 µM; in assay [6], greater than 100 µM. For the same molecule, the TGI in assay [7], in assay [8], in assay [9] and in assay [10] was greater than 100 µM each time.
Consider `Oc1c(Cl)c(Cl)c(O)c(-c2cnc(-c3ncc(-c4c(O)c(Cl)c(Cl)c(O)c4Cl)s3)s2)c1Cl`, for which the TGI in assay [1] is 97.2 µM; in assay [2], greater than 100 µM; in assay [3], greater than 100 µM; in assay [4], greater than 100 µM; in [11] it was 43.8 µM; in [6] it was 41.9 µM. Moreover, the TGI in assay [7] is 81.7 µM; in assay [8], greater than 100 µM; in [9], greater than 100 µM; in [10], 97.8 µM.
As for `CC(=O)c1ccc(Nc2nc3ccccc3c3occc23)cc1`, the TGI in assay [1] came to 27.6 µM; in [2], 36.2 µM; in assay [3] it was 44.3 µM; in [4], 23 µM; in assay [5], 29.6 µM; in assay [6] it was 41.1 µM. Moreover, the total growth inhibition concentration (TGI) in [7] amounted to 53.4 µM; in assay [8], 18.4 µM; in [10], 31.6 µM.
